Measured values: patent publication US3992536A, “Pharmaceutical compositions containing a 1-phenyl-2,2,4,4-C1 -C2 alkyl-3-[4-phenyl of pyridyl)-piperazino]-cyclobutanol-(1) and method of use” (Boehringer Ingelheim GmbH, priority 1972, dated 1976)

Assays:
mice [1] = assay: Activity on the spontaneous motility in mice (inhibition, photoelectric barriers, Friebel, Sommer and Varadan); assay type: in vivo, SPF-NMRI-mice, female; conditions: Mus musculus, po, read-out: ED50 (50% inhibition of spontaneous motility)
Protocol: 1. Activity on the spontaneous motility in mice:
The inhibition of spontaneous motility was determined with the aid of photoelectric barriers using an adaption of the method of Friebel, Sommer and Varadan (Arzneimittelforschung 9, 126 (1959)). SPF-NMRI-mice from our own breeding colony, having a body weight between 20 and 26 gm, were used. The number of interruptions in the flow of light was measured by ten photoelectric cells uniformly distributed in the bottom of a cylindrical cage, 25 cm in diameter, using a counting device. Thus, the spontaneous motility was registered as the animals moved over the bottom of the cage. 5 female mice were placed in each cage and their activity after application of the substance was measured for different periods of time relative to control mice. The present decrease in motility observed after application of various dosages relative to sham treated control animals was determined by graphical extrapolation, so that the dosage necessary for a 50% inhibition of spontaneous motility (ED50) could be obtained: […]

mice [2] = assay: Muscle relaxing and sedative activity in mice (slowly rotating wire cylinders, Young and Lewis); assay type: in vivo, NMRI-mice, female; conditions: Mus musculus, po, read-out: ED50 (50% of the animals fall out of rotating cylinder)
Protocol: 2. Muscle relaxing and sedative activity in mice:
The muscle relaxing and sedative activity was tested according to the method of Young and Lewis (Science 105, 368 (1947)) with female NMRI-mice of a specific breed having a body weight of from 20 to 26 gm. The test apparatus comprises slowly turning wire cylinders, sloped for 30° against the vertical line (length: 43 cm; diameter: 22 cm; mesh-size of the wire netting: 0.6 cm). After peroral administration of a suspension of the substance under test in 1% tylose suspension to groups of 10 mice/dose, their bearing in the slowly rotating cylinders (2 rotations/minute) was observed and was compared with a control group. The dose (ED50) which caused 50% of the animals to fall out after certain test times was determined graphically: […]

[3] = Acute Toxicity (oral, Litchfield and Wilcoxon); assay type: in vivo; conditions: mouse, in vivo, po; mice; death within 14 days after application
Protocol: (§1) The acute toxicity was determined after oral administration to groups of 10 mice (sex ratio 1:1) from our own breeding colony.

mice [4] = assay: Acute Toxicity (oral, Litchfield and Wilcoxon); assay type: in vivo; conditions: p.o., within 14 days, printed beside LD50 >3200 mgm/kg
Protocol: as §1

## CC1(C)[C@H](N2CCN(c3ccccn3)CC2)C(C)(C)[C@@]1(O)c1ccc(O)cc1 [A]
Mice [1]; after 30-45 minutes
  ED50: 7.5 mg/kg
Mice [1]; after 90-105 minutes
  ED50: 11 mg/kg
Mice [1]; after 150-165 minutes
  ED50: 6 mg/kg
Mice [2]; after 30-60 minutes
  ED50: 5.5 mg/kg
Mice [2]; after 90-120 minutes
  ED50: 7.5 mg/kg
Mice [2]; after 210-240 minutes
  ED50: 8.5 mg/kg
Mice [2]; after 270-300 minutes
  ED50: 7.5 mg/kg
[3]
  LD50 at 336 h: 338 mg/kg

## CC1(C)[C@H](N2CCN(c3ccccc3)CC2)C(C)(C)[C@@]1(O)c1ccc(O)cc1 [B]
Mice [1]; after 30-45 minutes
  ED50: > 50 mg/kg
Mice [1]; after 90-105 minutes
  ED50: 3 mg/kg
Mice [1]; after 150-165 minutes
  ED50: 4 mg/kg
Mice [2]; after 30-60 minutes
  ED50: 26 mg/kg
Mice [2]; after 90-120 minutes
  ED50: 11 mg/kg
Mice [2]; after 210-240 minutes
  ED50: 6 mg/kg
Mice [2]; after 270-300 minutes
  ED50: 5.5 mg/kg
[3]
  LD50 at 336 h: 1340 mg/kg

## COc1ccc(N2CCN([C@H]3C(C)(C)[C@](O)(c4ccc(O)cc4)C3(C)C)CC2)cc1 [C]
Mice [1]; after 30-45 minutes
  ED50: 11 mg/kg
Mice [1]; after 90-105 minutes
  ED50: 7.5 mg/kg
Mice [1]; after 150-165 minutes
  ED50: 6 mg/kg
Mice [2]; after 30-60 minutes
  ED50: 20 mg/kg
Mice [2]; after 90-120 minutes
  ED50: 16 mg/kg
Mice [2]; after 210-240 minutes
  ED50: 34 mg/kg
Mice [2]; after 270-300 minutes
  ED50: 15.5 mg/kg
[3]
  LD50 at 336 h: > 6400 mg/kg

## COc1ccc([C@]2(O)C(C)(C)[C@@H](N3CCN(c4ccccc4)CC3)C2(C)C)cc1OC [D]
Mice [1]; after 30-45 minutes
  ED50: 26 mg/kg
Mice [1]; after 90-105 minutes
  ED50: 22 mg/kg
Mice [1]; after 150-165 minutes
  ED50: 3 mg/kg
Mice [2]; after 30-60 minutes
  ED50: > 40 mg/kg
Mice [2]; after 90-120 minutes
  ED50: 32 mg/kg
Mice [2]; after 210-240 minutes
  ED50: 16 mg/kg
Mice [2]; after 270-300 minutes
  ED50: 14 mg/kg
[3]
  LD50 at 336 h: 2900 mg/kg

## CC1(C)[C@H](N2CCN(c3ccc(O)cc3)CC2)C(C)(C)[C@@]1(O)c1ccc(O)cc1 [E]
Mice [1]; after 30-45 minutes
  ED50: 5 mg/kg
Mice [1]; after 90-105 minutes
  ED50: 5 mg/kg
Mice [1]; after 150-165 minutes
  ED50: < 2.5 mg/kg
Mice [2]; after 30-60 minutes
  ED50: 10 mg/kg
Mice [2]; after 90-120 minutes
  ED50: 13 mg/kg
Mice [2]; after 210-240 minutes
  ED50: 9 mg/kg
Mice [2]; after 270-300 minutes
  ED50: 3 mg/kg
[3]
  LD50 at 336 h: > 3200 mg/kg
Mice [4]
  animals died: 0 out of 10

## CC(C)c1ccc([C@]2(O)C(C)(C)[C@@H](N3CCN(c4ccccc4)CC3)C2(C)C)cc1 [F]
Mice [1]; after 30-45 minutes
  ED50: 95 mg/kg
Mice [1]; after 90-105 minutes
  ED50: 5 mg/kg
Mice [1]; after 150-165 minutes
  ED50: 2 mg/kg
Mice [2]; after 30-60 minutes
  ED50: 29 mg/kg
Mice [2]; after 90-120 minutes
  ED50: 4 mg/kg
Mice [2]; after 210-240 minutes
  ED50: 2 mg/kg
Mice [2]; after 270-300 minutes
  ED50: 3 mg/kg
[3]
  LD50 at 336 h: > 800 mg/kg

## CC(C)c1ccc([C@]2(O)C(C)(C)[C@@H](N3CCN(c4ccccn4)CC3)C2(C)C)cc1 [G]
Mice [1]; after 30-45 minutes
  ED50: 7 mg/kg
Mice [1]; after 90-105 minutes
  ED50: 3 mg/kg
Mice [1]; after 150-165 minutes
  ED50: 5 mg/kg
Mice [2]; after 30-60 minutes
  ED50: 11 mg/kg
Mice [2]; after 90-120 minutes
  ED50: 8 mg/kg
Mice [2]; after 210-240 minutes
  ED50: 3 mg/kg
Mice [2]; after 270-300 minutes
  ED50: 8 mg/kg
[3]
  LD50 at 336 h: 118 mg/kg

## CC1(C)[C@H](N2CCN(c3ccccn3)CC2)C(C)(C)[C@@]1(O)c1ccc(Cl)cc1 [H]
Mice [1]; after 30-45 minutes
  ED50: > 13 mg/kg
Mice [1]; after 90-105 minutes
  ED50: 31 mg/kg
Mice [1]; after 150-165 minutes
  ED50: > 13 mg/kg
Mice [2]; after 30-60 minutes
  ED50: 13 mg/kg
Mice [2]; after 90-120 minutes
  ED50: 22 mg/kg
Mice [2]; after 210-240 minutes
  ED50: 19 mg/kg
Mice [2]; after 270-300 minutes
  ED50: 15 mg/kg
[3]
  LD50 at 336 h: 442 mg/kg

## CC(C)(C)c1ccc([C@]2(O)C(C)(C)[C@@H](N3CCN(c4ccccn4)CC3)C2(C)C)cc1 [I]
Mice [1]; after 30-45 minutes
  ED50: 16 mg/kg
Mice [1]; after 90-105 minutes
  ED50: 3 mg/kg
Mice [1]; after 150-165 minutes
  ED50: 3 mg/kg
Mice [2]; after 30-60 minutes
  ED50: 16 mg/kg
Mice [2]; after 90-120 minutes
  ED50: 10 mg/kg
Mice [2]; after 210-240 minutes
  ED50: 17 mg/kg
Mice [2]; after 270-300 minutes
  ED50: 14 mg/kg

## CC(C)(C)c1ccc([C@]2(O)C(C)(C)[C@@H](N3CCN(c4ccccc4)CC3)C2(C)C)cc1 [K]
Mice [1]; after 30-45 minutes
  ED50: 15 mg/kg
Mice [1]; after 90-105 minutes
  ED50: 3 mg/kg
Mice [1]; after 150-165 minutes
  ED50: 2 mg/kg
Mice [2]; after 30-60 minutes
  ED50: 48 mg/kg
Mice [2]; after 90-120 minutes
  ED50: 8 mg/kg
Mice [2]; after 210-240 minutes
  ED50: 6 mg/kg
Mice [2]; after 270-300 minutes
  ED50: 1 mg/kg

## CCC(C)c1ccc([C@]2(O)C(C)(C)[C@@H](N3CCN(c4ccccn4)CC3)C2(C)C)cc1 (stereo partly shown) [L]
Mice [1]; after 30-45 minutes
  ED50: 7 mg/kg
Mice [1]; after 90-105 minutes
  ED50: 1 mg/kg
Mice [1]; after 150-165 minutes
  ED50: 1 mg/kg
Mice [2]; after 30-60 minutes
  ED50: 5 mg/kg
Mice [2]; after 90-120 minutes
  ED50: 4 mg/kg
Mice [2]; after 210-240 minutes
  ED50: 2 mg/kg
Mice [2]; after 270-300 minutes
  ED50: 1 mg/kg
[3]
  LD50 at 336 h: 162 mg/kg

## CC(C)Cc1ccc([C@]2(O)C(C)(C)[C@@H](N3CCN(c4ccccn4)CC3)C2(C)C)cc1 [M]
Mice [1]; after 30-45 minutes
  ED50: 9 mg/kg
Mice [1]; after 90-105 minutes
  ED50: > 3 mg/kg
Mice [1]; after 150-165 minutes
  ED50: 0.4 mg/kg
Mice [2]; after 30-60 minutes
  ED50: 4 mg/kg
Mice [2]; after 90-120 minutes
  ED50: 4 mg/kg
Mice [2]; after 210-240 minutes
  ED50: 3 mg/kg
Mice [2]; after 270-300 minutes
  ED50: 2 mg/kg

## CC(C)Cc1ccc([C@]2(O)C(C)(C)[C@@H](N3CCN(c4ccccc4)CC3)C2(C)C)cc1 [N]
Mice [1]; after 30-45 minutes
  ED50: 8 mg/kg
Mice [1]; after 90-105 minutes
  ED50: 2 mg/kg
Mice [1]; after 150-165 minutes
  ED50: 1 mg/kg
Mice [2]; after 30-60 minutes
  ED50: 65 mg/kg
Mice [2]; after 90-120 minutes
  ED50: 3 mg/kg
Mice [2]; after 210-240 minutes
  ED50: 2 mg/kg
Mice [2]; after 270-300 minutes
  ED50: 3 mg/kg

## CCC(C)c1ccc([C@]2(O)C(C)(C)[C@@H](N3CCN(c4ccccc4)CC3)C2(C)C)cc1 (stereo partly shown) [O]
Mice [1]; after 30-45 minutes
  ED50: 9 mg/kg
Mice [1]; after 90-105 minutes
  ED50: 3 mg/kg
Mice [1]; after 150-165 minutes
  ED50: 2 mg/kg
Mice [2]; after 30-60 minutes
  ED50: 1 mg/kg
Mice [2]; after 90-120 minutes
  ED50: 1 mg/kg
Mice [2]; after 210-240 minutes
  ED50: 2 mg/kg
Mice [2]; after 270-300 minutes
  ED50: 1 mg/kg
[3]
  LD50 at 336 h: 800 mg/kg

## CCCCc1ccc([C@]2(O)C(C)(C)[C@@H](N3CCN(c4ccccn4)CC3)C2(C)C)cc1 [P]
Mice [1]; after 30-45 minutes
  ED50: 9 mg/kg
Mice [1]; after 90-105 minutes
  ED50: 3 mg/kg
Mice [1]; after 150-165 minutes
  ED50: 2 mg/kg
Mice [2]; after 30-60 minutes
  ED50: 15 mg/kg
Mice [2]; after 90-120 minutes
  ED50: 4 mg/kg
Mice [2]; after 210-240 minutes
  ED50: 3 mg/kg
Mice [2]; after 270-300 minutes
  ED50: 6 mg/kg

## CCCCc1ccc([C@]2(O)C(C)(C)[C@@H](N3CCN(c4ccccc4)CC3)C2(C)C)cc1 [Q]
Mice [1]; after 30-45 minutes
  ED50: 34 mg/kg
Mice [1]; after 90-105 minutes
  ED50: > 3 mg/kg
Mice [1]; after 150-165 minutes
  ED50: 4 mg/kg
Mice [2]; after 30-60 minutes
  ED50: > 200 mg/kg
Mice [2]; after 90-120 minutes
  ED50: 22 mg/kg
Mice [2]; after 210-240 minutes
  ED50: 8 mg/kg
Mice [2]; after 270-300 minutes
  ED50: 8 mg/kg

## CC1(C)[C@H](N2CCN(c3ccccn3)CC2)C(C)(C)[C@@]1(O)c1cccc(Cl)c1 [R]
Mice [1]; after 30-45 minutes
  ED50: > 25 mg/kg
Mice [1]; after 90-105 minutes
  ED50: 12 mg/kg
Mice [1]; after 150-165 minutes
  ED50: 13 mg/kg
Mice [2]; after 30-60 minutes
  ED50: 46 mg/kg
Mice [2]; after 90-120 minutes
  ED50: 8 mg/kg
Mice [2]; after 210-240 minutes
  ED50: 8 mg/kg
Mice [2]; after 270-300 minutes
  ED50: 11 mg/kg
